Our source for the TGI values is PubChem BioAssay (NCI).

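Briefly, cells in 96-well plates were exposed to five compound concentrations for 48 h, and endpoints were estimated by linear interpolation. The concentration for full growth arrest is given as TGI.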 Where only a bound is given, the exact number is not on record here.

Some test systems named below: PC-3 prostate; HS 578T breast; HT29 colon; NCI-H23 lung; CAKI-1 renal; SN12C renal; K-562 leukemia; HCC-2998 colon; SR leukemia; NCI-H226 lung; MDA-MB-435; CCRF-CEM leukemia; MDA-N; OVCAR-8 ovarian; A498 renal; SNB-19 CNS; SNB-75 CNS; A549 NSCLC; SK-MEL-2 melanoma; ACHN renal.
Common to all, as to experiment: DTP human tumour cell line panel, 48 h

What is called TGI is the concentration giving total growth inhibition. Read a high TGI as lower sensitivity of the cells. In the case of `COc1cc(CN2CCCCC2)cc2cc(C(=O)O)c(=O)oc12`, the TGI in the assay on PC-3 prostate, with HS 578T breast, in the assay with HT29 colon, in the assay on NCI-H23 lung, in the assay on CAKI-1 renal and in the assay with SN12C renal was more than 100 µM throughout. Besides, the TGI with K-562 leukemia, in the assay on HCC-2998 colon, with SR leukemia, with NCI-H226 lung, in the assay on MDA-MB-435 and in the assay with CCRF-CEM leukemia was more than 100 µM each time. Also, the TGI in the assay on MDA-N, with OVCAR-8 ovarian, with A498 renal, in the assay on SNB-19 CNS, with SNB-75 CNS and with A549 NSCLC was more than 100 µM throughout. In addition, the TGI with SK-MEL-2 melanoma and with ACHN renal was more than 100 µM each time.

As for `COc1c(C)c2nc3ccccc3[nH]c2c2c(=O)ccnc12`, the TGI in the assay on PC-3 prostate is more than 100 µM; in the assay with HS 578T breast, 78.7 µM; with HT29 colon, more than 100 µM; with NCI-H23 lung it was more than 100 µM; in the assay on CAKI-1 renal, more than 100 µM; in the assay on SN12C renal it was more than 100 µM. Moreover, the TGI in the assay on K-562 leukemia, in the assay on HCC-2998 colon, with SR leukemia, in the assay on NCI-H226 lung, in the assay with MDA-MB-435 and with CCRF-CEM leukemia was more than 100 µM in each case. The TGI was more than 100 µM with MDA-N; more than 100 µM in the assay on OVCAR-8 ovarian; more than 100 µM in the assay on A498 renal; more than 100 µM with SNB-19 CNS; 35.1 µM in the assay on SNB-75 CNS; more than 100 µM in the assay with A549 NSCLC. Further, the TGI in the assay on SK-MEL-2 melanoma and in the assay with ACHN renal was more than 100 µM in each case.

For `CC(C)(C)c1cc(/C=C(\C#N)C(=O)NCCO)cc(C(C)(C)C)c1O`, the TGI in the assay on PC-3 prostate was 46.7 µM; in the assay on HS 578T breast, more than 100 µM; in the assay with HT29 colon, 51.7 µM; with NCI-H23 lung it was 89.7 µM; in the assay with CAKI-1 renal it was 77.6 µM; with SN12C renal it was 51.6 µM. The TGI in the assay with K-562 leukemia turned out to be 86.7 µM; in the assay on SR leukemia it was 49.4 µM; in the assay with NCI-H226 lung, 40.7 µM; in the assay on MDA-MB-435, 45 µM; with CCRF-CEM leukemia, 46.3 µM; in the assay on MDA-N it was 48.7 µM. The TGI with OVCAR-8 ovarian was more than 100 µM; in the assay with A498 renal, 48.4 µM; in the assay with SNB-19 CNS, more than 100 µM; in the assay on SNB-75 CNS, 72.4 µM; in the assay on A549 NSCLC, more than 100 µM; with SK-MEL-2 melanoma it was 37.4 µM. Also, in the assay with ACHN renal, the TGI was determined as 76.5 µM.

With `CCOC(=O)C(CC#Cc1ccc(C#CCC(NC(C)=O)C(=O)OCC)cc1)NC(C)=O` (stereo unspecified), the TGI in the assay with PC-3 prostate, in the assay on HS 578T breast, with HT29 colon, in the assay on NCI-H23 lung, in the assay on CAKI-1 renal and in the assay with SN12C renal was more than 100 µM in each case. Moreover, the concentration for total growth inhibition (TGI) in the assay on K-562 leukemia, with HCC-2998 colon, in the assay on SR leukemia, in the assay with NCI-H226 lung, in the assay with MDA-MB-435 and with CCRF-CEM leukemia was more than 100 µM throughout. Also, the TGI in the assay with MDA-N, in the assay with OVCAR-8 ovarian, in the assay with A498 renal, with SNB-19 CNS, in the assay on SNB-75 CNS and with A549 NSCLC was more than 100 µM each time. Also, the TGI in the assay on SK-MEL-2 melanoma and with ACHN renal was more than 100 µM in each case.

Turning to `O=c1c(-c2ccc(Cl)cc2)nnc2n(Cc3ccccc3)c3ccccc3n12`, the TGI is more than 100 µM in the assay with PC-3 prostate; more than 100 µM in the assay on HS 578T breast; more than 100 µM with HT29 colon; more than 100 µM in the assay with NCI-H23 lung; 59.8 µM in the assay with CAKI-1 renal; more than 100 µM in the assay on SN12C renal. Moreover, the TGI in the assay on HCC-2998 colon, in the assay on SR leukemia, in the assay on NCI-H226 lung, with MDA-MB-435, with CCRF-CEM leukemia and in the assay with MDA-N was more than 100 µM each time. The TGI in the assay on OVCAR-8 ovarian is more than 100 µM; with A498 renal, 69.5 µM; in the assay with SNB-19 CNS, 72 µM; in the assay with SNB-75 CNS, 44.9 µM; in the assay on A549 NSCLC it was more than 100 µM; with SK-MEL-2 melanoma, more than 100 µM. Also, the TGI in the assay on ACHN renal was more than 100 µM.

With `O=C(CSc1n[nH]c(=O)[nH]c1=O)NNC(=O)c1cccc2nc3ccccc3nc12`, the TGI in the assay with PC-3 prostate, with HS 578T breast, in the assay with HT29 colon, in the assay with NCI-H23 lung, with CAKI-1 renal and in the assay on SN12C renal was more than 100 µM each time. Moreover, the TGI in the assay with K-562 leukemia, in the assay with HCC-2998 colon, in the assay with SR leukemia, with NCI-H226 lung, in the assay with MDA-MB-435 and in the assay on CCRF-CEM leukemia was more than 100 µM throughout. The TGI was 97.5 µM with MDA-N; more than 100 µM with OVCAR-8 ovarian; more than 100 µM with A498 renal; more than 100 µM in the assay with SNB-19 CNS; more than 100 µM in the assay on A549 NSCLC; more than 100 µM in the assay with SK-MEL-2 melanoma. Further, in the assay with ACHN renal, the TGI is more than 100 µM.

In the case of `Cc1c2ncccc2cc2oc3ccccc3c(=O)c12`, the TGI with PC-3 prostate, with HS 578T breast, in the assay with HT29 colon, with NCI-H23 lung, in the assay with CAKI-1 renal and in the assay on SN12C renal was more than 100 µM each time. Besides, the TGI in the assay on K-562 leukemia, in the assay with HCC-2998 colon, with SR leukemia, in the assay with NCI-H226 lung, in the assay with MDA-MB-435 and with CCRF-CEM leukemia was more than 100 µM each time. In addition, the TGI in the assay with MDA-N, in the assay with OVCAR-8 ovarian, with A498 renal, in the assay on SNB-75 CNS, in the assay on A549 NSCLC and with SK-MEL-2 melanoma was more than 100 µM in each case. In addition, the TGI in the assay on ACHN renal was more than 100 µM.
